A short description of data set [1]: Rabbit Cornea Homogenate stability (esterase) assay, Method 2. The following applies: for Esterase % Lifitegrast formation at 45 min: 37° C., Method 2 (DPBS pH 7.4); for API Formation rate (%/min): Method 2. The class given is in vitro ADME. Here is the method:
(§1) Determining Rabbit Cornea Homogenate stability of the test compounds was performed using HPLC-MS or UPLC-MS. The assay was performed at two concentrations of Rabbit Cornea Homogenate (0.15 mg/mL and 0.45 mg/mL total protein) so that any hydrolysis observed can be assigned as esterase dependent or not.
(§2) Three to five rabbit corneas (e.g. New Zealand Whites (NZW) or Dutch Belted (DB)) of approx. 50 mg each were sliced and scraped with a scalpel and tweezers until reduced to small (1-3 mm), thin pieces. These were transferred into a glass vial containing approximately 2 mL of cold DPBS pH 7.4 buffer.
(§3) Sample was cooled intermittently on ice and shear homogenized for 3 minutes, then centrifuged for 3 min at 13,000 g. The supernatant was pipetted off into a vial, and total protein concentration determined at 280 nm. Sample was stored at −78° C.
10 mM Compound DMSO stocks were diluted to 10 μM in a glass vial: 10 μL of 10 mM Compound stock was added to 9,990 μL DPBS, pH 7.4 buffer. Esterase homogenate was diluted to 300 ng/μL and 900 ng/μL in DPBS. […]
A heater shaker was set to 37° C. Into a suitable 96 well plate (Run Plate), 80 μL of 300 or 900 ng/μL esterase homogenate was pipetted into two rows as compounds were analyzed in duplicate (0 min, 2 min, 5 min, 10 min, 20 min and 45 min). The plate was sealed and then warmed at 37° C. for 5 min.
Two 96 shallow-well plates were placed on ice (Kill Plates). To these, 180 μL of 60:40 MeCN-H2O+0.1% acetic acid were added to required rows. The plates were sealed to minimise evaporation.
To both rows of the Run Plate, 80 μL of 10 μM compound solution was added. At the appropriate time point, 20 μL of the assay mixture was added to the matching kill plate well containing 180 μL of 60:40 cold MeCN-H2O+0.1% acetic acid. For lipoic acid analysis, samples were analysed as soon as practicable by LCMS (Waters Xevo TQ-S). For parent conjugate and parent analysis the samples were diluted further 1 in 10: 20 μL supernatant was added to 180 μL of 50:50 MeCN—H2O.
Parent conjugate, parent and keratolytic concentrations were determined against appropriate standard response curves and the half-life (T½) of the parent conjugate was calculated using the peak area or the measured concentration of the parent conjugate at each time point in the linear region of the log-linear plot.

Data set [2] is described as follows: Aqueous hydrolysis stability assay, Method 2. In kind it is physicochemical. Particulars: Method 2: DPBS pH 7.4, 37° C. Here is the method: (§4) Determination of aqueous stability of the test compounds was performed using HPLC-MS or UPLC-MS. A test compound 10 mM stock solution was prepared in DMSO. Half-life (T1/2) of the parent conjugate is calculated using the peak area of the parent conjugate at each time point in the linear region of the log-linear plot.
10 μL of the DMSO stock solution is dissolved in 990 μL of DPBS pH 7.4 buffer to prepare 100 μM solution. A further dilution is made by dissolving 75 μL of 100 μM stock solution into 225 μL of DPBS. Final DMSO concentration is 0.25%. The solution is kept at 37° C. and injected without delay into the LCMS (Waters Xevo XSQ-ToF). Additional injections are performed at appropriate time points.

The next data set concerns human T-cell line. Particulars: in vitro; cited from earlier work.
Data set [3] deals with human peripheral blood mononuclear cells. The following applies: in vitro; cited from earlier work.
Data set [4] deals with patients with dry eye and delayed tear clearance. The following applies: 0.5% ophthalmic suspension, QID, 4 weeks, 64 patients (Pflugfelder et al 2004); cited from earlier work.
Data set [5] in a line: Rabbit Cornea Homogenate stability (esterase) assay, Method 1. In kind it is in vitro ADME. Particulars: for Esterase % Lifitegrast formation at 45 min: 37° C., Method 1 (50 mM HEPES pH 7.5); for Esterase % keratolytic agent formation at 45 min / API Formation rate (%/min): Method 1. Here is the method: as §1, §2, §3
10 mM Compound stocks were diluted to 100 μM in a 96 deep-well plate: 10 μL of 10 mM Compound stock was added to 990 μL 50 mM HEPES, pH 7.5 buffer. Compounds were further diluted to 10 μM: 100 μL of 100 μM compound was added to 900 μL 50 mM HEPES, pH 7.5 buffer. Esterase homogenate was diluted to 300 ng/μL and 900 ng/μL.
A heater shaker was set to 37° C. Into a suitable 96 well plate (Run Plate), 75 μL of 300 or 900 ng/μL esterase homogenate was pipetted into each of the required wells (2 min, 5 min, 10 min, 20 min and 45 min). The plate was sealed and then warmed at 37° C. for 5 min.
Another 96 well PCR plate was put on ice (Kill Plate). To this was added 100 μL of MeCN to each well, labelled 0 min 2 min, 5 min, 10 min, 20 min and 45 min. The plate was covered to minimize evaporation.
For the T=0 sample only, to the 100 μL cold MeCN stop solution was added 50 μL of 300 or 900 ng/μL esterase homogenate followed by 50 μL of 10 μM compound solution. For the remaining timepoints, 75 μL of 10 μM compound solution was added to the Run Plate starting from T=45 min row and ending with T=2 min row. At the appropriate time point, 100 μL of the assay mixture was added to the matching kill plate well containing 100 μL of cold MeCN. Samples were analyzed as soon as practicable by LCMS (Waters Xevo TQ-S or Micromass Ultima).
Parent conjugate and parent concentrations were determined against appropriate standard response curves and the half-life (T½) of the parent conjugate was calculated using the peak area of the parent conjugate at each time point in the linear region of the log-linear plot.

Data set [6] can be described thus: Aqueous hydrolysis stability assay, Method 1. The following applies: 45 min; Method 1: 50 mM HEPES pH 7.5 or 1:1 acetonitrile:water, room temperature. In kind it is physicochemical. Here is the method:
as §4
10 μL of the DMSO stock solution was dissolved in 990 μL of 50 mM HEPES pH 7.5 buffer or 1:1 (v/v) of acetonitrile:water to make a 100 μM solution. Final DMSO concentration was 1%. The solution was kept at room temperature and injected without delay into the LCMS (Waters Xevo TQ-S or Micromass Ultima). Additional injections were performed at appropriate time points.

The mark [7] stands for this setting: Cornea Homogenate Conc 0.15 mg/mL.
Where [8] appears, read: Cornea Homogenate Conc 0.45 mg/mL.

Structures are written as SMILES.

As for `CC(OC(=O)CCC(=O)O)OC(=O)[C@H](Cc1cccc(S(C)(=O)=O)c1)NC(=O)c1c(Cl)cc2c(c1Cl)CCN(C(=O)c1ccc3ccoc3c1)C2` (stereo partly shown) [Compound 45], in data set [1] (setting [7]), the “Esterase % Lifitegrast formation at 45 min” value is “C (percent API formation 51% to 75%)” and the “API Formation rate (%/min)” value is reported as “c (API formation rate 1.0-1.5%/min)”. Moreover, in data set [1] (setting [8]), the “Esterase % Lifitegrast formation at 45 min” value is on record as “C (percent API formation 51% to 75%)” and the “API Formation rate (%/min)” value is listed as “c (API formation rate 1.0-1.5%/min)”. Besides, in data set [2] (44 min), the “Hydrolytic % Lifitegrast formation at [time]” value was “C [44 min] (percent API formation >4%)”.

For the molecule `CS(=O)(=O)c1cccc(C[C@H](NC(=O)c2c(Cl)cc3c(c2Cl)CCN(C(=O)c2ccc4ccoc4c2)C3)C(=O)O)c1` [lifitegrast], the “inhibition of T-cell adhesion to ICAM-1” value in the data set with human T-cell line is listed as “may inhibit T-cell adhesion to ICAM-1”. In data set [3], the “inhibition of secretion of inflammatory cytokines” value is recorded as “may inhibit secretion of inflammatory cytokines”.

On to `CCOC(=O)O[C@]1(C(=O)OCCl)CC[C@H]2[C@@H]3CCC4=CC(=O)C=C[C@]4(C)[C@H]3[C@@H](O)C[C@@]21C` [loteprednol etabonate], for which the “improving some signs and symptoms versus vehicle” value in data set [4] was “more effective than its vehicle”.

With `CC(=O)N[C@@H](CS)C(=O)OC(C)OC(=O)[C@H](Cc1cccc(S(C)(=O)=O)c1)NC(=O)c1c(Cl)cc2c(c1Cl)CCN(C(=O)c1ccc3ccoc3c1)C2` (stereo partly shown) [Compound 5], in data set [5] (setting [7]), the “Esterase % Lifitegrast formation at 45 min” value is on record as “A (percent active pharmaceutical ingredient (API) formation <25%)”, the “Esterase % keratolytic agent formation at 45 min” value was “A (percent active pharmaceutical ingredient (API) formation <25%)” and the “API Formation rate (%/min)” value is on record as “a (API formation rate <0.5%/min)”. For the same molecule, in data set [5] (setting [8]), the “Esterase % Lifitegrast formation at 45 min” value is “A (percent active pharmaceutical ingredient (API) formation <25%)”, the “Esterase % keratolytic agent formation at 45 min” value is reported as “A (percent active pharmaceutical ingredient (API) formation <25%)” and the “API Formation rate (%/min)” value is given as “a (API formation rate <0.5%/min)”. Also, the “Hydrolytic % Lifitegrast formation at [time]” value in data set [6] is “C [45 min] (percent API formation >4%)”.

As for `CC(=O)N[C@@H](CSSCC[C@@H](CCCCC(=O)OC(C)OC(=O)[C@H](Cc1cccc(S(C)(=O)=O)c1)NC(=O)c1c(Cl)cc2c(c1Cl)CCN(C(=O)c1ccc3ccoc3c1)C2)SSC[C@H](NC(C)=O)C(=O)O)C(=O)O` (stereo partly shown) [Compound 44], the “Esterase % Lifitegrast formation at 45 min” value in data set [1] (setting [7]) and in data set [1] (setting [8]) was “A (percent active pharmaceutical ingredient (API) formation <25%)” throughout. Further, the “API Formation rate (%/min)” value in data set [1] (setting [7]) and in data set [1] (setting [8]) was “a (API formation rate <0.5%/min)” each time.

On to `CC(OC(=O)OCCCO)OC(=O)[C@H](Cc1cccc(S(C)(=O)=O)c1)NC(=O)c1c(Cl)cc2c(c1Cl)CCN(C(=O)c1ccc3ccoc3c1)C2` (stereo partly shown) [Compound 43], for which, in data set [1] (setting [7]), the “Esterase % Lifitegrast formation at 45 min” value was “B (percent API formation 25% to 50%)” and the “API Formation rate (%/min)” value was “b (API formation rate 0.5-1.0%/min)”. Besides, in data set [1] (setting [8]), the “Esterase % Lifitegrast formation at 45 min” value was “C (percent API formation 51% to 75%)” and the “API Formation rate (%/min)” value is reported as “c (API formation rate 1.0-1.5%/min)”.

Consider `CC(=O)SCC(=O)OC(C)OC(=O)[C@H](Cc1cccc(S(C)(=O)=O)c1)NC(=O)c1c(Cl)cc2c(c1Cl)CCN(C(=O)c1ccc3ccoc3c1)C2` (stereo partly shown) [Compound 31], for which the “Esterase % Lifitegrast formation at 45 min” value in data set [1] (setting [7]) and in data set [1] (setting [8]) was “D (percent API formation >75%)” each time. Moreover, the “API Formation rate (%/min)” value in data set [1] (setting [7]) and in data set [1] (setting [8]) was “d (API formation rate >1.5%/min)” each time. The “Hydrolytic % Lifitegrast formation at [time]” value in data set [2] (60 min) was “C [60 min] (percent API formation >4%)”.

The values above are taken from US20230399317A1, “COMPOUNDS AND METHODS FOR THE TREATMENT OF OCULAR DISORDERS” (Azura Ophthalmics Ltd., priority 2020, published 2023).
